US9040553B2, “Phenoxyisobutyric acid compounds and method of synthesis” (CELL VIABLE CORPORATION, priority 2010, dated 2015)

Target: BSA (Bos taurus, UniProt P02769)
Assay: BSA glycation inhibition (glucose incubation, SDS gel/PVDF blot, periodic acid-Schiff staining)
Format: biochemical
Settings: BSA incubated with glucose and compound at 37° C. for 5 weeks; periodic acid-Schiff base staining of blot
Method: Compound No. 1 was tested for glycation activity according to the following protocol:
BSA was incubated in the presence of glucose and Compound No. 1 at 37° C. for 5 weeks. Aliquots of 2 μg protein were run on an SDS gel and transferred to PVDF membrane—the same procedure as for a western blot. The membrane was then processed to identify glycoprotein content by the periodic acid-Schiff base method. The positive reaction is pink, and glycation also shifts the molecular weight so the band migrates more slowly down the gel (higher position on the blot). […] Amimoguanadine was used as a control Reduced staining is an indication of glycation inhibition.

BSA, sequence (P02769 25-607): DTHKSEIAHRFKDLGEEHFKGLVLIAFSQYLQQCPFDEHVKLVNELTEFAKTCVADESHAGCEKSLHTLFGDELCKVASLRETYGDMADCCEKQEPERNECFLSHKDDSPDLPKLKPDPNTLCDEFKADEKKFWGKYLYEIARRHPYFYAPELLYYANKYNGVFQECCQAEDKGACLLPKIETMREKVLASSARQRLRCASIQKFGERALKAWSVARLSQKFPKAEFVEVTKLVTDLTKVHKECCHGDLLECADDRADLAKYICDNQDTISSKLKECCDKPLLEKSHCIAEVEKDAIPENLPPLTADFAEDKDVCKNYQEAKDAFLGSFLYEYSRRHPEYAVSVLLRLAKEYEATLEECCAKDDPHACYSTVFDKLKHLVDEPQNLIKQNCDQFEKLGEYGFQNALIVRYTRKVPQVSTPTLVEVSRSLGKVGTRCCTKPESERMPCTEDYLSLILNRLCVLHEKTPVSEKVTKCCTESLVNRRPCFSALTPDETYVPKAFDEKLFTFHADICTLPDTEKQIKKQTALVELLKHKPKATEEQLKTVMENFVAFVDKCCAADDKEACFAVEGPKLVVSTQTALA

- glycation inhibition (reduced glycoprotein staining): found to inhibit glycation
Substance: 3,3′-dichloro-1,1′-diphenyl-4,4′-diureidophenoxyisobutyric acid [Compound No. 1]
